Measurements reported in US11026944B2, “Compositions and methods for treating insomnia” (Eisai R&D Management Co., Ltd., priority 2014, dated 2021).

How the values were obtained:
[1] = test system: subjects with primary insomnia; assay: 001 Study Part B: next day KSS, DSST, PVT; type: in vivo, human
Text: After the initial Screening visit, eligible subjects were scheduled to return to the clinic for 2 days during the Screening Period to conduct screening/baseline PSGs. These two days occurred at least 3 days after the initial Screening visit and within a window from Day-7 to Day-6 (±2 days). The first PSG was used to screen for sleep apnea and periodic limb movements in sleep (PLMS) and serve as the first baseline PSG. The second PSG was used as the second baseline PSG. Specific PSG variables were used to determine whether subjects met PSG inclusion criteria, and the average of PSG variables from these two PSGs was used as Baseline for this PD measure. Subjects who had met PSG inclusion criteria returned to the clinic on Day-1 for additional baseline procedures and randomization. Subjects were not allowed to nap on Day 1. On the evening of Day 1, after fasting a minimum of 3 hours, study drug was administered 30 minutes prior to the subject's habitual bedtime (lights-out), as calculated from the sleep diary for the first PSG during the Screening Period. PK blood samples were collected at prespecified timepoints, and PD assessments were performed. PSG was recorded on Day 1, postdose. Subjects were administered additional PD assessments each morning on Day 1 through Day 6. These assessments included the KSS, DSST, and PVT, in order to assess daytime sleepiness, level of alertness, and ability to concentrate. The KSS and DSST were also administered 5 minutes predose and 25 minutes postdose on Day 1, just prior to lights-out. Waketime Questionnaires were administered after the PD assessments within 15 minutes of lights-on, on Day 1 to Day 6. Time and duration of naps was recorded on Day 2.
Part B subjects were administered the KSS, DSST, and PVT within 15 minutes after lights-on specifically in that order, on each morning from Day 1 through Day 6, followed by the Waketime Questionnaire. The KSS and DSST were also administered 5 minutes predose and 25 minutes postdose on Day 1 (just prior to lights-out).

[2] = test system: subjects with insomnia; assay: 201 Study: Karolinska Sleepiness Scale (next-day residual sleepiness); type: in vivo, human
Method: All subjects returned to the clinic on Day-1 for Baseline Period procedures. They remained in the clinic until Day 3. Morning assessments on Day 1 provided the Baseline values for the KSS, the Digit Symbol Substitution Test (DSST), and the Reaction Time Index (RTI). Assessments at 6 hours after waketime provided the Baseline values for the Waking Function Battery (WFB), and the Profile of Mood States-Brief (POMS-B). Subjects were then randomized to receive 1 of 6 doses of compound A or placebo for the next 15 days. Study drugs were tablets containing compound A-matched placebo or compound A of 1 mg, 2.5 mg, 5 mg, or 10 mg and to be ingested 30 minutes before the median habitual bedtime calculated from their Sleep Diary responses during the Screening Period. An 8-hour PSG, starting at the same bedtime as used for the screening and Baseline PSG nights, was recorded on the first 2 treatment nights (Days 1 and 2). The Sleep Diary continued to be completed each day in the clinic, and assessments of insomnia severity (ISI), next-day residual effects (KSS, DSST, and RTI) were conducted while subjects were in the clinic. On specified study days, plasma concentrations of compound A were assessed while subjects were in the clinic in the morning after awakening and at trough just before dosing.
The KSS was used to measure next-day residual effects at prespecified timepoints. In this test, subjects rate their sleepiness using the KSS, a 9-point verbally anchored scale. Categories and scores range from“extremely alert” (score=1), “alert” (3), “neither alert nor sleepy” (5), “sleepy-but no difficulty remaining awake” (7), to “extremely sleepy-fighting sleep” (9). The key outcome parameter for the KSS was the score from 1 to 9.
Each dose was assessed for next-day residual sleepiness using the KSS. A mean difference of change from baseline in KSS at 1 hour after waketime on Day 2 and Day 3 of less than 4 units was incorporated into the utility function. A dose of compound A was considered to have an acceptable KSS at Day 15 and Day 16 if the mean difference of change from baseline in KSS at 1 hour after waketime on Day 15 and Day 16 at this dose relative to placebo was less than 4 units. Operationally, acceptable KSS for Day 15 and Day 16 was defined as the […] boundary of a 90% confidence interval (CI) being less than 4 units (of the mean difference of change from baseline in KSS at 1 hour after waketime at this dose relative to placebo).
In Table 6, “Baseline” was defined as the time-matched value on Day 1. “LS Means Diff” refers to the differences between LS Means of Placebo and each compound A dose, “95% CI” means to 95% CI of LS Means Diff. “p-value” was analyzed using analysis of covariance (ANCOVA) with baseline as a covanate.

[3] = 1 hour post waketime, 1 mg nightly
[4] = 1 hour post waketime, 2.5 mg nightly
[5] = 1 hour post waketime, 5 mg nightly
[6] = 1 hour post waketime, 10 mg nightly
[7] = 1 hour post waketime, 15 mg nightly
[8] = 1 hour post waketime, 25 mg nightly

SMILES: Cc1ncc(OC[C@@]2(c3cccc(F)c3)C[C@H]2C(=O)Nc2ccc(F)cn2)c(C)n1 [Compound A, (1R,2 S)-2-(((2,4-dimethylpyrimidin-5-yl)oxy)methyl)-2-(3-fluorophenyl)-N-(5-fluoropyridin-2-yl) cyclopropanecarboxamide]
- next day effects on KSS, DSST, or PVT ([1]; any dose of compound A (2.5, 10, 25 mg), zolpidem 10 mg): no clinically significant next day effects
- measures of next-day residual sleepiness ([1]; single 25 mg evening dose): some individuals at this dose exhibited increases from baseline
- KSS vs placebo, significance ([2]; 15 min post waketime timepoints): No statistically significant differences
- Change from Baseline in KSS, Mean of Days 2 & 3: LS Means Diff vs placebo [2, 3]: 0.02
- Change from Baseline in KSS, Mean of Days 2 & 3: Mean [2, 3]: −0.2
- Change from Baseline in KSS, Mean of Days 15 & 16: LS Means Diff vs placebo [2, 3]: 0.51
- Change from Baseline in KSS, Mean of Days 15 & 16: Mean [2, 3]: 0.3
- Change from Baseline in KSS, Mean of Days 2 & 3: LS Means Diff vs placebo [2, 4]: −0.06
- Change from Baseline in KSS, Mean of Days 2 & 3: Mean [2, 4]: −0.3
- Change from Baseline in KSS, Mean of Days 15 & 16: LS Means Diff vs placebo [2, 4]: 0.13
- Change from Baseline in KSS, Mean of Days 15 & 16: Mean [2, 4]: −0.1
- Change from Baseline in KSS, Mean of Days 2 & 3: LS Means Diff vs placebo [2, 5]: 0.20
- Change from Baseline in KSS, Mean of Days 2 & 3: Mean [2, 5]: −0.1
- Change from Baseline in KSS, Mean of Days 15 & 16: LS Means Diff vs placebo [2, 5]: 0.43
- Change from Baseline in KSS, Mean of Days 15 & 16: Mean [2, 5]: 0.1
- Change from Baseline in KSS, Mean of Days 2 & 3: LS Means Diff vs placebo [2, 6]: 0.16
- Change from Baseline in KSS, Mean of Days 2 & 3: Mean [2, 6]: 0.0
- Change from Baseline in KSS, Mean of Days 15 & 16: LS Means Diff vs placebo [2, 6]: 0.01
- Change from Baseline in KSS, Mean of Days 15 & 16: Mean [2, 6]: −0.1
- Change from Baseline in KSS, Mean of Days 2 & 3: LS Means Diff vs placebo [2, 7]: 0.32
- Change from Baseline in KSS, Mean of Days 2 & 3: Mean [2, 7]: 0.1
- Change from Baseline in KSS, Mean of Days 15 & 16: LS Means Diff vs placebo [2, 7]: 0.38
- Change from Baseline in KSS, Mean of Days 15 & 16: Mean [2, 7]: 0.1
- Change from Baseline in KSS, Mean of Days 2 & 3: LS Means Diff vs placebo [2, 8]: 0.47
- Change from Baseline in KSS, Mean of Days 2 & 3: Mean [2, 8]: 0.4
- Change from Baseline in KSS, Mean of Days 15 & 16: LS Means Diff vs placebo [2, 8]: 0.68
- Change from Baseline in KSS, Mean of Days 15 & 16: Mean [2, 8]: 0.6
- KSS LS mean differences vs placebo, significance ([2]; 1 hour post waketime, Mean of Days 2/3, 1 mg to 15 mg): not statistically significant
- KSS vs placebo, significance ([2]; 2 hour post waketime, mean of Days 2/3, 15 mg and 25 mg): statistical significance
- KSS vs placebo, significance ([2]; 2 hour post waketime, mean of Days 15/16, 25 mg): statistically significant
